Data: patent publication EP3436024B1, “3-BETA-METHOXY-PREG FOR USE IN THE TREATMENT OF TREATMENT RESISTANT DEPRESSION” (Mapreg, priority 2016, dated 2017)

Columns and labels:
Dopaminergic D2S = Dopaminergic D2S (Homo sapiens, UniProt P14416); assay: CNS receptor binding assay, D2S; conditions: MAP4343 10 µM; [^3H] spiperone; Human recombinant (HEK-293 cells); read-out: % Inhibition of control specific binding
Method: (§1) MAP4343 has been screened for in vitro affinity to 80 different CNS neurotransmitters receptors using various validated binding assays.
(§2) Table 4. In vitro affinity of MAP4343 (10 µM) for CNS neurotransmitter receptors associated with side effects and/or abuse liability. Data are the average of two individual assays for each receptor and are expressed as % inhibition of the control specific binding of the reference compound. Results showing an inhibition higher than 50% are considered to represent significant effects of the test compound.

Histaminergic H2 = Histaminergic H2 (Homo sapiens, UniProt P25021); assay: CNS receptor binding assay, H2; conditions: MAP4343 10 µM; [^125I] APT; Human recombinant (CHO cells); read-out: % Inhibition of control specific binding
Sequence of Histaminergic H2 (P25021 whole entry): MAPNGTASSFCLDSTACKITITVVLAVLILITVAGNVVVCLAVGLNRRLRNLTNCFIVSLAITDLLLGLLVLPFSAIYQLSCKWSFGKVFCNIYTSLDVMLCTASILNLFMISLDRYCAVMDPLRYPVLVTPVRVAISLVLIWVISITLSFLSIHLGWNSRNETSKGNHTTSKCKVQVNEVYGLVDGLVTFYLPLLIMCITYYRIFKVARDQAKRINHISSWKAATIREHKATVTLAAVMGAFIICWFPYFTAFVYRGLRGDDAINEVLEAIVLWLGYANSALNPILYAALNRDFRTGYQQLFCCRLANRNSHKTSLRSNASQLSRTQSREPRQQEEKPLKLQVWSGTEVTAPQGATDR
Method: as §1, §2

Dopaminergic D4.4 = Dopaminergic D4.4 (Homo sapiens, UniProt P21917); assay: CNS receptor binding assay, D4.4; conditions: MAP4343 10 µM; [^3H] spiperone; Human recombinant (CHO cells); read-out: % Inhibition of control specific binding
Method: as §1, §2

Serotoninergic 5-HT1A = Serotoninergic 5-HT1A (Homo sapiens, UniProt P08908); assay: CNS receptor binding assay, 5-HT1A; conditions: MAP4343 10 µM; [^3H] 8-OH-DPAT; Human recombinant (HEK-293 cells); read-out: % Inhibition of control specific binding
Sequence of Serotoninergic 5-HT1A (P08908 whole entry): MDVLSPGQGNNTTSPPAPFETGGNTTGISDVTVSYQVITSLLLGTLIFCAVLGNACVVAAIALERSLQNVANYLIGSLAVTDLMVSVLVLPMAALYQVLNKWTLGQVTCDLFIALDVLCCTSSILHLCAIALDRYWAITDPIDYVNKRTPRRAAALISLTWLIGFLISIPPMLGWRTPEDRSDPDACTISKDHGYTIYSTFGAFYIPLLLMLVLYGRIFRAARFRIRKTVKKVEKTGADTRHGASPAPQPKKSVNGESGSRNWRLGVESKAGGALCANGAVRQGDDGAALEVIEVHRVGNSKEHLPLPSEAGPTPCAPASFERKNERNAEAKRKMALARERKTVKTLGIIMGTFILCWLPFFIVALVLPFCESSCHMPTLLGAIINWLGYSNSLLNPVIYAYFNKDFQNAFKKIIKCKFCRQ
Method: as §1, §2

Wistar Kyoto (WKY) rats = assay: Anxious-like behavior: activity in the central square of the open-field arena, WKY rats; format: in vivo, rat; conditions: acute, MAP4343 10 mg/kg s.c., fluoxetine 10 mg/kg i.p., ketamine 30 mg/kg i.p.
Method: After a 6-day period of acclimatization, all experimental groups received daily successive subcutaneous (250 µl per rat) and intraperitoneal (1 ml/kg) injections. WI rats received injection of vehicle (sesame oil + saline) while WKY rats were randomly assigned to […], as follow: KWY rats receiving only vehicle (sesame oil + saline) and WKY rats treated with MAP4343 (10 mg/kg, s.c.; rats received in parallel i.p. injections of saline), fluoxetine (10 mg/kg i.p., rats received in parallel s.c. injections of sesame oil) or ketamine (30 mg/kg, i.p.; rats received in parallel s.c. injections of sesame oil) (see Figure 3).
After, a 6-day period of acclimatization, the acute phase of treatment started for 4 days during behavioral tests were performed (Figure 3). All animals were injected 1h30 before the starting of behavioral test.
The animals were individually placed in the open field arena (OFA) (70 x 100 x 70 cm), with a central square (35 x 50 cm), located in a 50 lux illuminated room and videotaped during 3 min using a computerized system (VideoTrack V2.5, ViewPoint, Lyon, France).
OFA allows firstly the evaluation of total locomotor activity (LMA) thereby measuring the total distance travelled in the arena (in cm). Secondly, measurements of the activity in the center of the arena like (i) the number of entries in the center of arena and (ii) the total time spent in the center of arena (in sec) provide cues of anxiety-like behavior (Prut and Belzung, 2003). All these behavioral parameters were instantaneously measured automatically with the VideoTrack V2.5 software from the videos.

Noradrenergic α2 = assay: CNS receptor binding assay, α2; conditions: MAP4343 10 µM; [^3H] RX 821002; rat cerebral cortex
Method: as §1, §2

Oppioid K = Oppioid K (Rattus norvegicus, UniProt P34975); assay: CNS receptor binding assay, opioid K; conditions: MAP4343 10 µM; [^3H] U 69593; rat recombinant (CHO cells); read-out: % Inhibition of control specific binding
Sequence of Oppioid K (P34975 whole entry): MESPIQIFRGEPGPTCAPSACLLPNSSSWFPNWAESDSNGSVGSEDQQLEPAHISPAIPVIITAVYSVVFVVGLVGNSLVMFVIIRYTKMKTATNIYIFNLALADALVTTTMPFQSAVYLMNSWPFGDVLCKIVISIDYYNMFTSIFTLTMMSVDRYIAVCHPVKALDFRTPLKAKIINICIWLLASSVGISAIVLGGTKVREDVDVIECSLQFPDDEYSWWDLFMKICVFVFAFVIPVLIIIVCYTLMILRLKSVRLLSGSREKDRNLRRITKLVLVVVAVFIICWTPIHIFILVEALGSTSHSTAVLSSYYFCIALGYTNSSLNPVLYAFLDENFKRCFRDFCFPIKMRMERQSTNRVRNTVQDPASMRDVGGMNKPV
Method: as §1, §2

Serotoninergic 5-HT6 = Serotoninergic 5-HT6 (Homo sapiens, UniProt P50406); assay: CNS receptor binding assay, 5-HT6; conditions: MAP4343 10 µM; [^3H] LSD; Human recombinant (CHO cells); read-out: % Inhibition of control specific binding
Sequence of Serotoninergic 5-HT6 (P50406 whole entry): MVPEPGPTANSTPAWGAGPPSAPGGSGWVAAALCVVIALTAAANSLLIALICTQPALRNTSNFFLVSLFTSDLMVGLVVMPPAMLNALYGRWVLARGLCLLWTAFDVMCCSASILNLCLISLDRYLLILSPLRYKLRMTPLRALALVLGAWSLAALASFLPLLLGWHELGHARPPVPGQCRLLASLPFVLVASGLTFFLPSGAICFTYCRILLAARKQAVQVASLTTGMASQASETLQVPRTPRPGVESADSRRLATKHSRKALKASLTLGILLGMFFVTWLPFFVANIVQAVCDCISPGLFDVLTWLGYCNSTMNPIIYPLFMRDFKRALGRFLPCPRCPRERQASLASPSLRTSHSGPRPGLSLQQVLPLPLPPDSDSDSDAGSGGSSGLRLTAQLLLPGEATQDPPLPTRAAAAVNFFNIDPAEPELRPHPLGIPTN
Method: as §1, §2

[1] = molecular target: purified tubulin and MAP2 (Homo sapiens, UniProt P11137); assay: Microtubule polymerization activity (optical density at 345 nm); format: biochemical; conditions: increase in optical density at 345 nm, 37 °C, in the presence of GTP
Sequence of purified tubulin and MAP2 (P11137 whole entry): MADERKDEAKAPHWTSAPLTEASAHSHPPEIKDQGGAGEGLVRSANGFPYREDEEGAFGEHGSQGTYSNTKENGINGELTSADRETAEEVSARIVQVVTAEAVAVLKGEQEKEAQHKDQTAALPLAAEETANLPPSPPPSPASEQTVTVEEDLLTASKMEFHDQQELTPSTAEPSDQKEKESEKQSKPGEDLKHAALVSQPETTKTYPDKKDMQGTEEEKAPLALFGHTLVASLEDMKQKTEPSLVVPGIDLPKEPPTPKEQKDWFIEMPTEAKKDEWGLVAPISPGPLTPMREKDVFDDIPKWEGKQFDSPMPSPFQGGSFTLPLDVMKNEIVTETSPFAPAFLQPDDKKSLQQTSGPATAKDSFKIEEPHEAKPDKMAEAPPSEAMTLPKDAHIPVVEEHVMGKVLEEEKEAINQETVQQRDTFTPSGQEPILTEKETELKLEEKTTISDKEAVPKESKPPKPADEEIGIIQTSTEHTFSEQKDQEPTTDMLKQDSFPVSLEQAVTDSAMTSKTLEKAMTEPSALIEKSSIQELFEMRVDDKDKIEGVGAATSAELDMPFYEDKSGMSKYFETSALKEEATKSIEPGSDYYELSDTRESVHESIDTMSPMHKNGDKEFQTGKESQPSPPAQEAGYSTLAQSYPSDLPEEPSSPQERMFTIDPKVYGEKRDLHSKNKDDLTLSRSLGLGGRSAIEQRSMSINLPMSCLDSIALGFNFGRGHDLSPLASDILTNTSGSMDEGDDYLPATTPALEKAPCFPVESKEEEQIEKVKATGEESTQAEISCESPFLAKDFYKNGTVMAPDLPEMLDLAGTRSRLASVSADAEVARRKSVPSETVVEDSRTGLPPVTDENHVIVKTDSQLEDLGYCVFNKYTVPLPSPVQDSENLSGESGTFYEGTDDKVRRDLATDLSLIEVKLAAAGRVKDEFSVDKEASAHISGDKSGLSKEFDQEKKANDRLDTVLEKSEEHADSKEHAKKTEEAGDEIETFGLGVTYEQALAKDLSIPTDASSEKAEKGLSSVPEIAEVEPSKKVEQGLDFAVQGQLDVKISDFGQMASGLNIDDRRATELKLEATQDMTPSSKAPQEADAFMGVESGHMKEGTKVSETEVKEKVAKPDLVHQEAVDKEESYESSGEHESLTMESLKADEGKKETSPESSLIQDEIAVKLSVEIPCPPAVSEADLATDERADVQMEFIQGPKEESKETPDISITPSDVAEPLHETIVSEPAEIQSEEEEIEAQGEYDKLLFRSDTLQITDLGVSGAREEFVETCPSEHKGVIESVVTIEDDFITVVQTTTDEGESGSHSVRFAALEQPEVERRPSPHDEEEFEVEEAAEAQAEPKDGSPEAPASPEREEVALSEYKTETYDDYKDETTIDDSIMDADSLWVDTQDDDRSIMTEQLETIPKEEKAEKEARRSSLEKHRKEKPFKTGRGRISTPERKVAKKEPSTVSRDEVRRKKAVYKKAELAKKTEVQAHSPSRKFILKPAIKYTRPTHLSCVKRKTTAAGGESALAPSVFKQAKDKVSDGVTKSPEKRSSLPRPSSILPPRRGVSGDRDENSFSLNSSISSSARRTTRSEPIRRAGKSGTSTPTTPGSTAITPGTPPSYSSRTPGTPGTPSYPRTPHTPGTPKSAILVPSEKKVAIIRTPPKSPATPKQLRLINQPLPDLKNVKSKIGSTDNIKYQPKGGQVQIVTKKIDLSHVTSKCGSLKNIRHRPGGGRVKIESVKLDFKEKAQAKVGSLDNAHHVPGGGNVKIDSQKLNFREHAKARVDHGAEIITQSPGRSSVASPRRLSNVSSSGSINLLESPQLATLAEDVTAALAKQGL
Method: Activity is measured by the increase in optical density at 345 nm of a mixture of purified tubulin and MAP2, incubated at 37 °C in the presence of GTP.

[2] = system: microtubule-associated protein2 (MAP2); assay: Binding (affinity) by displacement of PREG-3H; conditions: index of binding
ERβ = molecular target: T1, ERβ (Homo sapiens, UniProt Q92731); assay: Radioligand binding assay, steroid hormone receptor ERβ; conditions: MAP4343 10 µM; 0.5 nM [^3H] Estradiol; Human recombinant Sf9 cells; second ER row
T1 construct: host or cells: Sf9 cells
T1 sequence (Q92731 whole entry): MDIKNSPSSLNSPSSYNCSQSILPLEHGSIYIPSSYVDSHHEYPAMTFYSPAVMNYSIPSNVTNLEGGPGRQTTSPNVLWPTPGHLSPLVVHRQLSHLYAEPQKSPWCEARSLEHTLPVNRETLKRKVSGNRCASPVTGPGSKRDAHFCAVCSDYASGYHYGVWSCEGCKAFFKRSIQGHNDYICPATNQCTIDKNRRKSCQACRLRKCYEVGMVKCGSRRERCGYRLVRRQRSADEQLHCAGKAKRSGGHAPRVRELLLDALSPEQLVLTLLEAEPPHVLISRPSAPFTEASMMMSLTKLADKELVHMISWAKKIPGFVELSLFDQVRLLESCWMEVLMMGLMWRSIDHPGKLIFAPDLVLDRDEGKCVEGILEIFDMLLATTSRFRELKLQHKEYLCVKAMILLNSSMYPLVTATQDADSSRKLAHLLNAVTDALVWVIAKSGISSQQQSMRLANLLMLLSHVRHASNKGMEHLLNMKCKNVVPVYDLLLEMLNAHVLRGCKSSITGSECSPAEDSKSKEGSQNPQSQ
Method: (§3) Binding affinity of 3β-methoxy-PREG (MAP4343) for receptors of steroid hormones was evaluated using radioligand binding assays.
(§4) Table 3. Affinity of MAP4343 (10 µM) for steroid hormones receptors measured by radioligand binding assays. […] None of the results met significance criteria at concentrations used.

[3] = molecular target: T2, Glucorticoid Receptor (GR) (Homo sapiens, UniProt P04150); assay: Radioligand binding assay, steroid hormone receptor GR; conditions: MAP4343 10 µM; 3 nM [^3H] Dexamethasone; Human HeLa S3 cells
T2 construct: Human HeLa S3 cells; endogenous in cells; host or cells: HeLa S3
T2 sequence (P04150 whole entry): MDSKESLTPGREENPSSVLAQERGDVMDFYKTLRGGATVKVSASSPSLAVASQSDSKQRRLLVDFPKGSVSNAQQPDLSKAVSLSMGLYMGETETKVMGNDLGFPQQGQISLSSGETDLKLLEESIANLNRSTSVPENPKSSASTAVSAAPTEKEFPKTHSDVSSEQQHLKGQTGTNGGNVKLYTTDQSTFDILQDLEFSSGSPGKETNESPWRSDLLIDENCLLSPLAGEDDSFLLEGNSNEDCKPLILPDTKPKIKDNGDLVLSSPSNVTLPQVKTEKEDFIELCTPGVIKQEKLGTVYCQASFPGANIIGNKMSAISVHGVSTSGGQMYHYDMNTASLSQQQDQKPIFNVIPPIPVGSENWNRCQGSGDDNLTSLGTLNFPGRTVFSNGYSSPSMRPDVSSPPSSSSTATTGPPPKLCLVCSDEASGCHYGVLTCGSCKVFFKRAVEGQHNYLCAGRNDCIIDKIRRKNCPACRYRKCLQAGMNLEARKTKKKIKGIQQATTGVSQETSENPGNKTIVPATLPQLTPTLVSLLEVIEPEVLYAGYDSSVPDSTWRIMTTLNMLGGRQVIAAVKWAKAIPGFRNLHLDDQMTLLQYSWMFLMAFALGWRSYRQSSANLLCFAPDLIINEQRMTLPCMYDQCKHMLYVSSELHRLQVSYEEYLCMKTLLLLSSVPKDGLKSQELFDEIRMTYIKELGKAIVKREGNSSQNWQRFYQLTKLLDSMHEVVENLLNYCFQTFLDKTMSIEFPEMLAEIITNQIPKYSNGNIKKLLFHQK
Method: as §3, §4

In the case of CO[C@H]1CC[C@@]2(C)C(=CC[C@H]3[C@@H]4CC[C@H](C(C)=O)[C@@]4(C)CC[C@@H]32)C1 (stereo in doubt) [MAP4343, 3β-methoxy-pregna-5-ene-20-one], the inhibition at 10 µM (Dopaminergic D2S) is reported as 6%, the inhibition at 10 µM (Histaminergic H2) is reported as -21% and the inhibition at 10 µM (Dopaminergic D4.4) is reported as 6%. The inhibition at 10 µM (Serotoninergic 5-HT1A) was 2%, the “number of entries in the central square of OFA, change as compared to WKY receiving only vehicle” value (Wistar Kyoto (WKY) rats; Fig. 5B) was “+289%” and the “time spent in the center of open-field, change as compared to WKY receiving vehicle” value (Wistar Kyoto (WKY) rats; Fig. 5C) was “did not modify”. For the same molecule, the “% Inhibition of control specific binding” value (Noradrenergic α2) was 7%, the inhibition at 10 µM (Oppioid K) was 19% and the inhibition at 10 µM (Serotoninergic 5-HT6) was 12%. For the same molecule, the Activity [1] was 100% of PREG, the Affinity [2] was 100% of PREG and the “% inhibition” value (ERβ) was 16%. The inhibition at 10 µM (ERβ) was < 25%, the “% inhibition” value [3] was 21% and the inhibition at 10 µM [3] was < 25%.
